In ChEMBL document CHEMBL1141387, “Molecular-docking-guided design, synthesis, and biologic evaluation of radioiodinated quinazolinone prodrugs” (J Med Chem, 2007):
In brackets after ≈: the same amount, converted by molar mass.

What was measured:
[1] = Solubility in phosphate buffer by radiotracer analysis method; type: physicochemical
[2] = PLAP-mediated conversion of prodrug to drug; type: ADME
[3] = Aqueous solubility by radiotracer analysis method; type: physicochemical; conditions: buffer

Row | solubility [1] | Activity [2] | solubility [3] | SMILES
1 | 4350 µg/mL | Active |  | N.N.N.N.O=P(O)(O)Oc1ccc(-c2nc(O)c3cc([127I])ccc3n2)c(OP(=O)(O)O)c1
2 |  |  | 0.00968 µg/mL (≈ 0.0255 µM) | O=c1[nH]c(-c2ccc(O)cc2O)nc2ccc([127I])cc12
3 |  | Active |  | N.N.N.N.O=c1[nH]c(-c2ccc(OP(=O)(O)O)cc2OP(=O)(O)O)nc2ccc([125I])cc12
